The values below come from publication PMC6278284, “Synthesis of Jacaranone-Derived Nitrogenous Cyclohexadienones and Their Antiproliferative and Antiprotozoal Activities” (Molecules, 2018).

Structures are written as SMILES. Several values for one entry are separate records, joined by “and”; a condition that tells them apart may be missing. Identical values can stand only once. Like-named read-outs stand apart in the source and are kept apart here.

The subject of data set [1] is P. falciparum, strain NF54, erythrocytic stages. As to the kind of experiment: In vitro growth inhibition assay of Plasmodium falciparum NF54 ([3H]-hypoxanthine incorporation). Type of data set: cell-based. Particulars: for IC50: Plasmodium falciparum, strain NF54, erythrocytic stages, read-out: P. falc. IC50; for SI (IC50 in L6 cells/IC50 P. falciparum): ratio IC50 L6 / IC50 P. falciparum NF54. How it is done:
In vitro activity against erythrocytic stages of P. falciparum was determined by a modified [^3H]-hypoxanthine incorporation assay using the drug-sensitive NF54 strain and the standard drug, chloroquine (Sigma C6628). Briefly, parasite cultures incubated in RPMI 1640 medium with 5% AlbuMAX^TM (without hypoxanthine) were exposed to serial drug dilutions in microtiter plates. After 48 h of incubation at 37 °C in a reduced oxygen atmosphere, 0.5 μCi [^3H]-hypoxanthine was added to each well of the plate. Cultures were incubated for a further 24 h before they were harvested onto glass-fiber filters and washed with distilled water. The radioactivity was counted using a Betaplate^TM liquid scintillation counter (Wallac, Zurich). The results were recorded as counts per minute (CPM) per well at each drug concentration and expressed as a percentage of the untreated controls. IC50 values were calculated from the sigmoidal inhibition curves using Microsoft Excel.

Data set [2] concerns T. brucei rhodesiense, strain STIB900 trypomastigote forms. As to the kind of experiment: In vitro growth inhibition assay of Trypanosoma brucei rhodesiense (Alamar Blue). Type of data set: cell-based. Particulars: for IC50: 72 h, strain STIB900, trypomastigote forms, read-out: T.b.rhod. IC50; for SI (IC50 in L6 cells/IC50 T. b. rhodesiense): ratio IC50 L6 / IC50 T. b. rhodesiense STIB900. How it is done:
Trypanosoma brucei rhodesiense, STIB 900 strain, and the standard drug, melarsoprol, were used for the assay. Minimum Essential Medium (50 μL) supplemented with 25 mM HEPES, 1g/L additional glucose, 1% MEM non-essential amino acids (100×), 0.2 mM 2-mercaptoethanol, 1 mM Na-pyruvate, and 15% heat-inactivated horse serum was added to each well of a 96-well microtiter plate. Serial drug dilutions of 11 three-fold dilution steps covering a range from 100 to 0.002 μg/mL were prepared. Then, 4 × 10^3 bloodstream forms of T. b. rhodesiense (STIB 900) in 50 μL were added to each well and the plate was incubated at 37 °C under a 5% CO2 atmosphere for 72 h. 10 μL Alamar Blue (resazurin, 12.5 mg in 100 mL double-distilled water) was then added to each well and incubation continued for a further 2–4 h. Then, the plates were read with a Spectramax Gemini XS microplate fluorometer (Molecular Devices Cooperation, Sunnyvale, CA, USA) using an excitation wavelength of 536 nm and an emission wavelength of 588 nm. The IC50 values were calculated from the sigmoidal inhibition curves using the microplate reader software, Softmax Pro (Molecular Devices Cooperation, Sunnyvale, CA, USA). Melarsoprol was used as the control.
(Alamar Blue is a resazurin reagent that responds to reducing activity.)

For data set [3], the system named is CCRF-CEM leukemia cells. As to the kind of experiment: XTT viability assay, CCRF-CEM. Type of data set: cell-based. To be noted: Homo sapiens, 72 h, read-out: metabolic active cells in % of control. How it is done:
(§1) Human CCRF-CEM leukemia and MDA-MB-231 breast cancer cells lines were kept in RPMI1640 medium (Gibco®, ThermoFisher Scientific Inc., New York, NY, USA), supplemented with 2 mM L-glutamine (Gibco®), 10% heat-inactivated foetal bovine serum (FBS, Gibco®), 100 units/mL Penicillin (PAA), and 100 µg/mL Streptomycin (Gibco®) (1% Pen/Strep). HCT-116 and U251 cells were cultured in high-glucose Dulbecco’s Modified Eagle Medium (DMEM, Gibco®) containing 2 mM L-glutamine, 10% FBS, and 1% Pen/Strep. MRC-5 cells were grown in Minimum Essential Medium (MEM, Gibco®) supplemented with 2 mM L-glutamine, 10% FBS, and 1% Pen/Strep. All cells were kept in a humidified 5% CO2 atmosphere at 37 °C and passaged at 90% confluence.
(§2) A Cell Proliferation Kit II (XTT) was purchased from Sigma-Aldrich and performed as described previously and in accordance with the manufacturer’s protocol. In brief, adherent cell lines were seeded at a density of 50,000 cells/mL or 100,000 cells/mL (MRC-5) in 96 well plates (100 µL, flat bottom) and grown for 24 h before test compounds were added. Suspension cells (CCRF-CEM) were seeded at 100,000 cells/mL and test compounds were added immediately. After 72 h, XTT solution was added for another 90 min or 4 h (CCRF-CEM cells) and absorbance was measured at 490 nm with a reference wave length of 650 nm (Hidex Sense Microplate Reader 425-301, Hidex, Turku, Finland). Results are expressed as a percentage of the vehicle-treated (0.5% DMSO) control cells. Vinblastine served as the positive control (0.01 µg/mL).
In general terms: Tetrazolium dyes change colour on reduction, which living cells bring about.

Data set [4] has as its system HCT-116 colon cancer cells. As to the kind of experiment: XTT viability assay, HCT-116. Type of data set: cell-based. Particulars: Homo sapiens, 72 h, read-out: metabolic active cells in % of control; for viability at 5 µg/mL: HCT 116, 5 µg/mL; for viability at 50 µg/mL: HCT 116, 50 µg/mL. As to the method: as §1, §2
The subject of data set [5] is MRC-5 non-tumorigenic lung fibroblasts. As to the kind of experiment: XTT viability assay, MRC-5. Type of data set: cell-based, human. Particulars: 72 h; for viability at 5 µg/mL / viability at 50 µg/mL: Homo sapiens, MRC5, read-out: metabolic active cells in % of control; for viability at 5 µg/mL: MRC-5, 5 µg/mL; for viability at 50 µg/mL: MRC-5, 50 µg/mL; for cytotoxicity against human MRC-5 cells (in words): 5 µg/mL. As to the method:
as §1, §2

Consider `O=C1C=CC(O)(CCN2C(=O)C=CC2=O)C=C1` [Compound 13b, N-[2-(1-Hydroxy-4-oxocyclohexa-2,5-dien-1-yl)ethyl]maleimide], for which the melting point (commonly the temperature of the solid-liquid transition) was in the range of 151 to 152 °C. Also, in data set [1], the IC50 (in general, the concentration needed to halve the response being measured) stood at 4420 nM and the “SI (IC50 in L6 cells/IC50 P. falciparum)” value amounted to 6.1. Also, the half-maximal inhibitory concentration (IC50) in data set [2] (Trypanosoma brucei) amounted to 2150 nM. For the same molecule, the “SI (IC50 in L6 cells/IC50 T. b. rhodesiense)” value in data set [2] is 12.5. In addition, in data set [3], the viability at 5 µg/mL is -1.08% and the viability at 50 µg/mL stood at 3.46%. Moreover, in data set [4], the viability at 5 µg/mL is 0.13% and the viability at 50 µg/mL is -0.32%. Moreover, in data set [5], the viability at 5 µg/mL stood at 14.6% and the viability at 50 µg/mL was 0.62%.

Molecule `O=C1C=CC(O)(CCN2C(=O)c3cccnc3C2=O)C=C1` [Compound 13f, N-[2-(1-Hydroxy-4-oxocyclohexa-2,5-dien-1-yl)ethyl]pyridine-2,3-dicarboximide] yielded a melting point of 167 to 168 °C. Also, in data set [1], the IC50 came out at 28000 nM and the “SI (IC50 in L6 cells/IC50 P. falciparum)” value came to 5.5. Moreover, the “SI (IC50 in L6 cells/IC50 T. b. rhodesiense)” value in data set [2] is listed as 3.4. In data set [3], the viability at 5 µg/mL amounted to 99.8% and the viability at 50 µg/mL is 21.7%. Further, in data set [4], the viability at 5 µg/mL was found to be 91% and the viability at 50 µg/mL was found to be 92.8%. In data set [5], the “cytotoxicity against human MRC-5 cells (in words)” value (“cytotoxicity” below) is listed as “did not show any cytotoxicity”, the viability at 5 µg/mL was found to be 109% and the viability at 50 µg/mL came out at 112%.

Consider `O=C1C=CC(O)(CCN2C(=O)COCC2=O)C=C1` [Compound 13g, N-[2-(1-Hydroxy-4-oxocyclohexa-2,5-dien-1-yl)ethyl]morpholine-3,5-dione], for which the melting point was 142 to 143 °C. In data set [1], the IC50 stood at 11800 nM and the “SI (IC50 in L6 cells/IC50 P. falciparum)” value is reported as 6.6. Besides, the IC50 in data set [2] (Trypanosoma brucei) is > 10000 nM. In data set [2], the “SI (IC50 in L6 cells/IC50 T. b. rhodesiense)” value turned out to be 5.1 and the concentration for half-maximal inhibition (IC50) worked out at 15300 nM. Also, in data set [3], the viability at 5 µg/mL turned out to be 86.9% and the viability at 50 µg/mL is 8.05%. In data set [4], the viability at 5 µg/mL was 96% and the viability at 50 µg/mL came to 68.1%. For the same molecule, in data set [5], the “cytotoxicity” value is on record as “did not show any cytotoxicity”, the viability at 5 µg/mL came to 116% and the viability at 50 µg/mL came out at 89.6%.

Regarding `O=C1C=CC(O)(CCN2C(=O)C3=C(CCCC3)C2=O)C=C1` [Compound 13i, N-[2-(1-Hydroxy-4-oxocyclohexa-2,5-dien-1-yl)ethyl]-3,4,5,6-tetrahydrophthalimide], the figures for the IC50 in data set [1] and in data set [2] (Trypanosoma brucei) were 1280 nM and 800 nM, respectively. The viability at 5 µg/mL in data set [3] was determined as 2.26%; in data set [4], 1.04%; in data set [5] it was 5.69%. Moreover, the viability at 50 µg/mL in data set [3] was 1.23%; in data set [4], 0.15%; in data set [5], 0.51%.

As for `O=C1C=CC(O)(CCN2C(=O)C3CC=CCC3C2=O)C=C1` (stereo not drawn) [Compound 13j, N-[2-(1-Hydroxy-4-oxocyclohexa-2,5-dien-1-yl)ethyl]-1,2,3,6-tetrahydrophthalimide], the melting point lay within 145 to 146 °C. Besides, in data set [1], the IC50 turned out to be 3930 nM and the “SI (IC50 in L6 cells/IC50 P. falciparum)” value was 2.0. Besides, the IC50 in data set [2] (Trypanosoma brucei) was found to be 970 nM. Besides, the “SI (IC50 in L6 cells/IC50 T. b. rhodesiense)” value in data set [2] came out at 8.3. In data set [3], the viability at 5 µg/mL came to 89.9% and the viability at 50 µg/mL was found to be 15.4%. In data set [4], the viability at 5 µg/mL turned out to be 98.6% and the viability at 50 µg/mL was 63.3%. Further, in data set [5], the “cytotoxicity” value is “did not show any cytotoxicity”, the viability at 5 µg/mL was 96.1% and the viability at 50 µg/mL turned out to be 50.3%.

Consider `O=C1C=CC(O)(CCN2Cc3ccccc3C2)C=C1` [Compound 14a, N-[2-(1-Hydroxy-4-oxocyclohexa-2,5-dien-1-yl)ethyl]isoindoline], for which the melting point was 103 to 104 °C and 103 °C. Besides, in data set [1], the IC50 turned out to be 2910 nM and the “SI (IC50 in L6 cells/IC50 P. falciparum)” value came out at 1.0. The IC50 in data set [2] (Trypanosoma brucei) worked out at 570 nM. Besides, the “SI (IC50 in L6 cells/IC50 T. b. rhodesiense)” value in data set [2] came to 4.9. Moreover, in data set [3], the viability at 5 µg/mL amounted to 94.6% and the viability at 50 µg/mL amounted to 58%. Further, in data set [4], the viability at 5 µg/mL worked out at 97.3% and the viability at 50 µg/mL came out at 62.1%. In addition, in data set [5], the “cytotoxicity” value is “did not show any cytotoxicity”, the viability at 5 µg/mL came to 119% and the viability at 50 µg/mL is 95.1%.

Molecule `O=C1C=CC(O)(CCN2CCOCC2)C=C1` [Compound 14c, N-[2-(1-Hydroxy-4-oxocyclohexa-2,5-dien-1-yl)ethyl]morpholine] showed a melting point of 98 to 99 °C. In addition, in data set [1], the IC50 turned out to be 10900 nM and the “SI (IC50 in L6 cells/IC50 P. falciparum)” value turned out to be 0.3. The IC50 in data set [2] (Trypanosoma brucei) was 270 nM. For the same molecule, the “SI (IC50 in L6 cells/IC50 T. b. rhodesiense)” value in data set [2] is reported as 12.9. In data set [3], the viability at 5 µg/mL is 22.8% and the viability at 50 µg/mL is -0.18%. In data set [4], the viability at 5 µg/mL came to 87.7% and the viability at 50 µg/mL turned out to be 1.58%. Also, in data set [5], the viability at 5 µg/mL was 141% and the viability at 50 µg/mL is 0.79%.
